# Assay results as given in ChEMBL document CHEMBL5352466, “New bioisosteric sulphur-containing choline kinase inhibitors with a tracked mode of action” (Eur J Med Chem, 2023).
# Activity calls are given as the source filed them. No cut-off for these calls is given here.
# Experiments:
# Choline kinase alpha = Choline kinase alpha (Homo sapiens, UniProt P35790); experiment: Inhibition of human Choline kinase alpha 1 incubated for 10 mins by liquid-scintillation counter analysis
# A549 [1] = experiment: Antiproliferative activity against human A549 cells assessed as inhibition of cell growth incubated for 72 hrs; format: functional
# HeLa [2] = experiment: Antiproliferative activity against human HeLa cells assessed as inhibition of cell growth incubated for 72 hrs; format: functional
# HT-29 = experiment: Antiproliferative activity against human HT-29 cells assessed as inhibition of cell growth incubated for 72 hrs; format: functional
# MDA-MB-231 = experiment: Antiproliferative activity against human MDA-MB-231 cells assessed as inhibition of cell growth incubated for 72 hrs; format: functional
# MCF7 = experiment: Antiproliferative activity against human MCF7 cells assessed as inhibition of cell growth incubated for 72 hrs; format: functional
# [3] = Antiproliferative activity against human Astrocyte cells assessed as inhibition of cell growth incubated for 72 hrs by resazurin dye based assay; format: toxicity
# A549 [4] = experiment: Induction of cell cycle arrest in human A549 cells at 1 to 5 uM incubated for 24 hrs by PI staining based flow cytometry analysis; format: functional; details: dose 1-5 µM
# HeLa [5] = experiment: Induction of cell cycle arrest in human HeLa cells at 1 to 5 uM incubated for 24 hrs by PI staining based flow cytometry analysis; format: functional; details: dose 1-5 µM
# HeLa [6] = experiment: Induction of cell cycle arrest in human HeLa cells assessed as accumulation of cells at G1 phase at 1 to 5 uM incubated for 24 hrs by PI staining based flow cytometry analysis; format: functional; details: dose 1-5 µM
# HeLa [7] = experiment: Induction of apoptosis in human HeLa cells at 1 to 5 uM by Annexin V/propidium iodide staining based flow cytometry analysis; format: functional, cell-based; details: dose 1-5 µM, time 48-72 hrs, TDE = time-dependent effect
# HeLa [8] = experiment: Induction of apoptosis in human HeLa cells measured for 48 to 72 hrs by Annexin V/propidium iodide staining based flow cytometry analysis; format: functional, cell-based; details: dose 1-5 µM, time 48-72 hrs
# HeLa [9] = experiment: Induction of apoptosis in human HeLa cells at 1 to 5 uM measured for 72 hrs by Annexin V/propidium iodide staining based flow cytometry analysis; format: functional, cell-based; details: dose 1-5 µM
# A549 [10] = experiment: Induction of apoptosis in human A549 cells at 5 uM measured for 72 hrs in presence of Z-VAD-fmk by Annexin V/propidium iodide staining based flow cytometry analysis; format: functional, cell-based
# HeLa [11] = experiment: Induction of apoptosis in human HeLa cells at 5 uM measured for 72 hrs in presence of Z-VAD-fmk by Annexin V/propidium iodide staining based flow cytometry analysis; format: functional, cell-based
# A549 [12] = experiment: Induction of mitochondrial membrane potential depolarization in human A549 cells at 5 uM incubated for 24 hrs by JC-1 staining based flow cytometry; format: functional, cell-based
# HeLa [13] = experiment: Induction of mitochondrial membrane potential depolarization in human HeLa cells at 1 to 5 uM incubated for 24 hrs by JC-1 staining based flow cytometry; format: functional, cell-based; details: dose 1-5 µM
# HeLa [14] = experiment: Induction of apoptosis in human HeLa cells assessed as increase in cleaved PARP-1 expression at 5 uM measured for 48 hrs by Western blotting analysis; format: functional, cell-based
# HeLa [15] = experiment: Induction of apoptosis in human HeLa cells assessed as reduction in MCL-1 expression at 5 uM measured for 48 hrs by Western blotting analysis; format: functional, cell-based
# Astrocyte = experiment: Induction of apoptosis in human Astrocyte cells assessed as reduction in MCL-1 expression at 5 uM measured for 48 hrs by Western blotting analysis; format: functional, cell-based
# [16] = Antiproliferative activity against human MCF-10A cells assessed as inhibition of cell growth incubated for 72 hrs by resazurin dye based assay; format: toxicity
# Sequence of Choline kinase alpha (P35790 whole entry): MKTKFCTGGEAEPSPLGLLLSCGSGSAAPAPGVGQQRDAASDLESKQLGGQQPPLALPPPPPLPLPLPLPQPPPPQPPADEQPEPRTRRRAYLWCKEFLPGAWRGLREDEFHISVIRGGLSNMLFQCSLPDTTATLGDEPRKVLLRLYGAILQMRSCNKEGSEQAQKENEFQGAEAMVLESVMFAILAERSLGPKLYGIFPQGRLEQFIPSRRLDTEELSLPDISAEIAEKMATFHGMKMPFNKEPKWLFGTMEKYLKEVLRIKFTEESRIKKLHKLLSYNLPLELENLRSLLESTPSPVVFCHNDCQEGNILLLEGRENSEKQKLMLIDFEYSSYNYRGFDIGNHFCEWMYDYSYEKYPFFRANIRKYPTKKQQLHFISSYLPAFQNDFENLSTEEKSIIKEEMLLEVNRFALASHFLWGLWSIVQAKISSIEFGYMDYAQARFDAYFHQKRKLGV
Compound,IC50 (Choline kinase alpha; read-out: IC50),GI50 (A549 [1]),GI50 (HeLa [2]),GI50 (HT-29),GI50 (MDA-MB-231),GI50 (MCF7),also measured
CN(c1ccc(Cl)cc1)c1cc[n+](Cc2ccc(SCCSc3ccc(C[n+]4ccc(N(C)c5ccc(Cl)cc5)c5ccccc54)cc3)cc2)c2ccccc12,1020 nM,2900 nM,> 10000 nM,8900 nM,5870 nM,3690 nM,–
CN(C)c1cc[n+](Cc2ccc(SSc3ccc(C[n+]4ccc(N(C)C)cc4)cc3)cc2)cc1,640 nM,2450 nM,440 nM,> 10000 nM,–,–,–
c1cc(SSc2ccc(C[n+]3ccc(N4CCCC4)cc3)cc2)ccc1C[n+]1ccc(N2CCCC2)cc1,360 nM,> 10000 nM,> 10000 nM,> 10000 nM,–,–,–
c1cc2c(s1)c(N1CCCC1)cc[n+]2Cc1ccc(SSc2ccc(C[n+]3ccc(N4CCCC4)c4sccc43)cc2)cc1,350 nM,6160 nM,2200 nM,> 10000 nM,–,–,–
CN(c1ccccc1)c1cc[n+](Cc2ccc(SCCSc3ccc(C[n+]4ccc(N(C)c5ccccc5)c5ccsc54)cc3)cc2)c2sccc12,1430 nM,4050 nM,5250 nM,6800 nM,6680 nM,3940 nM,–
CN(c1ccc(Cl)cc1)c1cc[n+](Cc2ccc(SCCSc3ccc(C[n+]4ccc(N(C)c5ccc(Cl)cc5)c5ccsc54)cc3)cc2)c2sccc12,710 nM,2660 nM,> 10000 nM,6070 nM,2950 nM,2370 nM,–
c1cc2c(N3CCCCCC3)nc[n+](Cc3ccc(SSc4ccc(C[n+]5cnc(N6CCCCCC6)c6ccsc65)cc4)cc3)c2s1,320 nM,4260 nM,1230 nM,> 10000 nM,–,–,–
[Br-].[Br-].c1cc2c(s1)c(N1CCCCCC1)cc[n+]2Cc1ccc(SSc2ccc(C[n+]3ccc(N4CCCCCC4)c4sccc43)cc2)cc1,–,> 10000 nM,> 10000 nM,> 10000 nM,–,–,IC50 (Choline kinase alpha): Not Determined(Insoluble)
Clc1ccc2c(N3CCCC3)cc[n+](Cc3ccc(SSc4ccc(C[n+]5ccc(N6CCCC6)c6ccc(Cl)cc65)cc4)cc3)c2c1,1430 nM,> 10000 nM,> 10000 nM,> 10000 nM,–,–,–
CN(c1ccccc1)c1nc[n+](Cc2ccc(SCCSc3ccc(C[n+]4cnc(N(C)c5ccccc5)c5sccc54)cc3)cc2)c2ccsc12,2600 nM,8200 nM,> 10000 nM,> 10000 nM,8940 nM,9120 nM,–
CN(c1ccc(Cl)cc1)c1cc[n+](Cc2ccc(SSc3ccc(C[n+]4ccc(N(C)c5ccc(Cl)cc5)c5ccccc54)cc3)cc2)c2ccccc12,850 nM,> 10000 nM,> 10000 nM,> 10000 nM,–,–,–
c1cc2c(s1)c(N1CCCC1)nc[n+]2Cc1ccc(SSc2ccc(C[n+]3cnc(N4CCCC4)c4sccc43)cc2)cc1,570 nM,> 10000 nM,> 10000 nM,> 10000 nM,–,–,–
c1cc2c(N3CCCCC3)nc[n+](Cc3ccc(SSc4ccc(C[n+]5cnc(N6CCCCC6)c6ccsc65)cc4)cc3)c2s1,520 nM,> 10000 nM,> 10000 nM,> 10000 nM,–,–,–

# Now those with a lower GI50 (A549 [1]), led by results:
IC50 (Choline kinase alpha; read-out: IC50),GI50 (A549 [1]),GI50 (HeLa [2]),GI50 (HT-29),GI50 (MDA-MB-231),GI50 (MCF7),Compound,also measured
1720 nM,2020 nM,9060 nM,5980 nM,1970 nM,4730 nM,CN(c1ccccc1)c1cc[n+](Cc2ccc(SCCSc3ccc(C[n+]4ccc(N(C)c5ccccc5)c5ccccc54)cc3)cc2)c2ccccc12,–
–,1590 nM,8840 nM,9060 nM,1750 nM,–,[Br-].[Br-].c1cc(SCCSc2ccc(C[n+]3ccc(N4CCCC4)cc3)cc2)ccc1C[n+]1ccc(N2CCCC2)cc1,IC50 (Choline kinase alpha): Not Determined(Insoluble)
–,1380 nM,> 10000 nM,> 10000 nM,4200 nM,–,CN(C)c1cc[n+](Cc2ccc(SCCSc3ccc(C[n+]4ccc(N(C)C)cc4)cc3)cc2)cc1.[Br-].[Br-],IC50 (Choline kinase alpha): Not Determined(Insoluble)
1010 nM,1370 nM,9930 nM,7480 nM,2010 nM,3110 nM,c1cc2c(s1)c(N1CCCC1)cc[n+]2Cc1ccc(SCCSc2ccc(C[n+]3ccc(N4CCCC4)c4sccc43)cc2)cc1,–
640 nM,1290 nM,4630 nM,2410 nM,1920 nM,2120 nM,c1cc2c(s1)c(N1CCCCCC1)cc[n+]2Cc1ccc(SCCSc2ccc(C[n+]3ccc(N4CCCCCC4)c4sccc43)cc2)cc1,GI50 at 72 h [16]: 2500 nM; GI50 at 72 h [3]: 4400 nM; Activity (A549 [4]): inactive; Activity (HeLa [5]): inactive; Activity (HeLa [6]): Active; Activity (HeLa [7]): Tde; Activity (HeLa [8]): Dose-Dependent Effect; Activity (HeLa [9]): Active; Activity (A549 [10]): inactive; Activity (HeLa [11]): Active; Activity (A549 [12]): Active; Activity (HeLa [13]): Active; Activity (HeLa [14]): Active; Activity (HeLa [15]): Active; Activity (Astrocyte): inactive
4400 nM,920 nM,2990 nM,2160 nM,1230 nM,1210 nM,c1cc2c(N3CCCCC3)cc[n+](Cc3ccc(SCCSc4ccc(C[n+]5ccc(N6CCCCC6)c6ccsc65)cc4)cc3)c2s1,–
660 nM,890 nM,2800 nM,2090 nM,1460 nM,1460 nM,c1cc2c(N3CCCCCC3)cc[n+](Cc3ccc(SCCSc4ccc(C[n+]5ccc(N6CCCCCC6)c6ccsc65)cc4)cc3)c2s1,GI50 at 72 h [3]: 2500 nM; Activity (A549 [4]): inactive; Activity (HeLa [5]): inactive; Activity (HeLa [6]): Active; Activity (HeLa [7]): Tde; Activity (HeLa [8]): Dose-Dependent Effect; Activity (HeLa [9]): Active; Activity (A549 [10]): inactive; Activity (HeLa [11]): Active; Activity (A549 [12]): Active; Activity (HeLa [13]): Active; Activity (HeLa [14]): Active; Activity (HeLa [15]): Active; Activity (Astrocyte): inactive
–,530 nM,260 nM,3000 nM,–,1340 nM,Clc1ccc2c(N3CCCC3)cc[n+](Cc3ccc(SCCSc4ccc(C[n+]5ccc(N6CCCC6)c6ccc(Cl)cc65)cc4)cc3)c2c1,GI50 at 72 h [16]: 2600 nM; GI50 at 72 h [3]: 5000 nM; Activity (A549 [4]): inactive; Activity (HeLa [5]): inactive; Activity (HeLa [6]): Active; Activity (HeLa [7]): Tde; Activity (HeLa [8]): Dose-Dependent Effect; Activity (HeLa [9]): Active; Activity (A549 [12]): Active; Activity (HeLa [13]): Active; Activity (HeLa [14]): Active; Activity (HeLa [15]): Active; Activity (Astrocyte): inactive
